Assay results from US6656690B2, “Mass spectrometric methods for biomolecular screening” (priority 1998, dated 2003).
Entries after “also recorded” stand apart in the source; their conditions may differ.

Test system: 27-mer RNA/DNA chimeric corresponding to the 16S rRNA A site
Assay: ESI-MS and CID/CAD MS-MS protection assay on chimeric 27-mer RNA/DNA (ion trap)
Format: binding, prokaryotic
Method: In order to study the structure of the 27-mer RNA corresponding to the 16S rRNA A site, of sequence 5′-GGC-GUC-ACA-CCU-UCG-GGU-GAA-GUC-GCC-3′ (SEQ ID NO:1) a chimeric RNA/DNA molecule that incorporates three deoxyadenosine (dA) residues at positions 7, 20 and 21 was prepared using standard nucleic acid synthesis protocols on an automated synthesizer. This chimeric nucleic acid of sequence 5′-GGC-GUC-dACA-CCU-UCG-GGU-GdAdA-GUC-GCC-3′ (SEQ ID NO:2) was injected as a solution in water into an electrospray mass spectrometer. […] These fragments correspond to the w7^(2−), w8^(2−) and the a7-B^(2−) fragments respectively, that are formed by cleavage of the chimeric nucleic acid adjacent to each of the incorporated dA residues. […]
Next, another sample of the chimeric nucleic acid was treated with a solution of paromomycin and the resulting mixture analyzed by ESI followed by CID using a mass spectrometer. […]
1 mL (0.6 O.D.) of a solution of a 27-mer RNA containing 3 dA residues (from Example 1) was diluted into 500 μL of 1:1 isopropanol:water and adjusted to provide a solution that was 150 mM in ammonium acetate, pH 7.4 and wherein the RNA concentration was […]. […] This mixture was then subjected to ESI-MS and the ionization of the nucleic acid and its complex monitored in the mass spectrum. […]

## NC[C@@H]1O[C@H](O[C@H]2[C@@H](O)[C@H](O[C@@H]3[C@@H](O)[C@H](N)C[C@H](N)[C@H]3O[C@H]3O[C@H](CO)[C@@H](O)[C@H](O)[C@H]3N)O[C@@H]2CO)[C@H](N)[C@@H](O)[C@@H]1O [paromomycin]
Same activation energy as free RNA
  fragmentation at dA sites of the complex under CID/CAD (protection of binding site): no fragmentation at the dA sites; also recorded: No cleavage was found to occur; also recorded: No significant fragment ions; also recorded: No fragment ions are detected
Target 10 mM as printed, paromomycin and library members ~150 nM
  complex formation / binding strength with chimeric 27-mer (in words): only a 1:1 complex
